Patent publication US9980943B2, “Methods of treating muscular dystrophy” (BOARD OF REGENTS OF THE NEVADA SYSTEM OF HIGHER EDUCATION, …, priority 2013, dated 2018)

Tests used:
Type in all cases: cell-based, mouse
[1] = system: β-galactosidase in CMV-LacZ C2C12 myotubes; experiment: CMV-LacZ secondary screen in C2C12 myotubes (β-Gal stabilizing assay); settings: for CMV-LACZ in Myotubes, value relative to DMSO: SU9516 analogs, C2C12 CMV-LacZ, N=2; for CMV-LACZ in Myotubes, signal relative to DMSO: C2C12 CMV-LacZ myotubes, fold relative to DMSO
Procedure, shortened: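 Dose-response runs at 0.5–40 μM (0.5, 1, 5, 10, 20, 40 μM; N=2 per point) used a clonal C2C12 line carrying CMV-LacZ. Cells were assayed as myoblasts or as differentiated myotubes, and β-galactosidase levels were read with the FDG fluorogenic substrate.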

[2] = system: α7 integrin (LacZ reporter in α7+/LacZ myotubes); experiment: Myotube α7 integrin FDG assay (Burkin assay in myotubes, 96-well); settings: for Burkin Assay in Myotubes, value relative to DMSO: SU9516 analogs, 96-well, N=3-6
[3] = system: α7 integrin (LacZ reporter in α7βgal+/− myoblasts); experiment: Myoblast α7+/LacZ integrin FDG assay (Burkin assay in myoblasts, 96-well); settings: 96-well; for Burkin Assay in Myoblasts, value relative to DMSO: SU9516 analogs, N=3-6; for Burkin Assay in Myoblasts, signal relative to DMSO: α7+/LacZ myoblasts
[4] = system: β-galactosidase in CMV-LacZ C2C12 myoblasts; experiment: CMV-LacZ secondary screen in C2C12 myoblasts (β-Gal stabilizing assay); settings: for CMV-LACZ in Myoblasts, value relative to DMSO: SU9516 analogs, C2C12 CMV-LacZ, N=2; for CMV-LACZ in Myoblasts (β-galactosidase activity relative to DMSO): CMV-LacZ C2C12 myoblasts
Procedure, shortened: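 C2C12 myoblasts stably carrying a linearized CMV-driven LacZ construct, clone chosen by β-gal level in the myoblast FDG assay. Compounds tested in 96-well dose-response at 0.5, 1, 5, 10, 20 and 40 μM, N=2 replicates per point, to detect β-gal stabilization.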

Compound: CCn1c(O)c(C(C#N)=C2N=c3ccccc3=N2)c2ccccc21 [MLS000564846-01]
- CMV-LACZ in Myotubes, value relative to DMSO ([1]; 0.5 uM): 0.8304
- CMV-LACZ in Myotubes, value relative to DMSO ([1]; 1 uM): 1.0444
- CMV-LACZ in Myotubes, value relative to DMSO ([1]; 5 uM): 1.1234
- CMV-LACZ in Myotubes, value relative to DMSO ([1]; 10 uM): 0.8711
- CMV-LACZ in Myotubes, value relative to DMSO ([1]; 20 uM): 1.2012
- CMV-LACZ in Myotubes, value relative to DMSO ([1]; 40 uM): 1.0094
- Burkin Assay in Myotubes, value relative to DMSO ([2]; 0.5 uM): 0.8836
- Burkin Assay in Myotubes, value relative to DMSO ([2]; 1 uM): 0.9557
- Burkin Assay in Myotubes, value relative to DMSO ([2]; 5 uM): 1.002
- Burkin Assay in Myotubes, value relative to DMSO ([2]; 10 uM): 1.071
- Burkin Assay in Myotubes, value relative to DMSO ([2]; 20 uM): 0.7006
- Burkin Assay in Myotubes, value relative to DMSO ([2]; 40 uM): 0.7529
- Burkin Assay in Myoblasts, value relative to DMSO ([3]; 0.5 uM): 0.8359
- Burkin Assay in Myoblasts, value relative to DMSO ([3]; 1 uM): 0.8438
- Burkin Assay in Myoblasts, value relative to DMSO ([3]; 5 uM): 0.8067
- Burkin Assay in Myoblasts, value relative to DMSO ([3]; 10 uM): 0.8704
- Burkin Assay in Myoblasts, value relative to DMSO ([3]; 20 uM): 0.7406
- Burkin Assay in Myoblasts, value relative to DMSO ([3]; 40 uM): 0.759
- CMV-LACZ in Myoblasts, value relative to DMSO ([4]; 0.5 uM): 0.9922
- CMV-LACZ in Myoblasts, value relative to DMSO ([4]; 1 uM): 0.8172
- CMV-LACZ in Myoblasts, value relative to DMSO ([4]; 5 uM): 0.9379
- CMV-LACZ in Myoblasts, value relative to DMSO ([4]; 10 uM): 1.3619
- CMV-LACZ in Myoblasts, value relative to DMSO ([4]; 20 uM): 1.2363
- CMV-LACZ in Myoblasts, value relative to DMSO ([4]; 40 uM): 1.0885

Compound: Cc1ccccc1-n1c(Cc2cccs2)n[nH]c1=S [MLS000568234-01]
- CMV-LACZ in Myotubes, signal relative to DMSO ([1]; 0.5 uM): 1.3844
- CMV-LACZ in Myotubes, signal relative to DMSO ([1]; 1 uM): 1.2622
- CMV-LACZ in Myotubes, signal relative to DMSO ([1]; 5 uM): 1.0764
- CMV-LACZ in Myotubes, signal relative to DMSO ([1]; 10 uM): 0.9074
- CMV-LACZ in Myotubes, signal relative to DMSO ([1]; 20 uM): 0.9918
- CMV-LACZ in Myotubes, signal relative to DMSO ([1]; 40 uM): 0.9141
- Burkin Assay in Myotubes, α7 integrin LacZ reporter signal relative to DMSO ([2]; 0.5 uM): 1.08
- Burkin Assay in Myotubes, α7 integrin LacZ reporter signal relative to DMSO ([2]; 1 uM): 1.167
- Burkin Assay in Myotubes, α7 integrin LacZ reporter signal relative to DMSO ([2]; 5 uM): 0.9642
- Burkin Assay in Myotubes, α7 integrin LacZ reporter signal relative to DMSO ([2]; 10 uM): 1.09
- Burkin Assay in Myotubes, α7 integrin LacZ reporter signal relative to DMSO ([2]; 20 uM): 0.8694
- Burkin Assay in Myotubes, α7 integrin LacZ reporter signal relative to DMSO ([2]; 40 uM): 0.9705
- Burkin Assay in Myoblasts, signal relative to DMSO ([3]; 0.5 uM): 1.094
- Burkin Assay in Myoblasts, signal relative to DMSO ([3]; 1 uM): 1.032
- Burkin Assay in Myoblasts, signal relative to DMSO ([3]; 5 uM): 1.136
- Burkin Assay in Myoblasts, signal relative to DMSO ([3]; 10 uM): 1.373
- Burkin Assay in Myoblasts, signal relative to DMSO ([3]; 20 uM): 1.106
- Burkin Assay in Myoblasts, signal relative to DMSO ([3]; 40 uM): 1.011
- CMV-LACZ in Myoblasts (β-galactosidase activity relative to DMSO) ([4]; 0.5 uM): 0.9556
- CMV-LACZ in Myoblasts (β-galactosidase activity relative to DMSO) ([4]; 1 uM): 0.9372
- CMV-LACZ in Myoblasts (β-galactosidase activity relative to DMSO) ([4]; 5 uM): 0.9043
- CMV-LACZ in Myoblasts (β-galactosidase activity relative to DMSO) ([4]; 10 uM): 0.9894
- CMV-LACZ in Myoblasts (β-galactosidase activity relative to DMSO) ([4]; 20 uM): 0.8819
- CMV-LACZ in Myoblasts (β-galactosidase activity relative to DMSO) ([4]; 40 uM): 0.7322

Compound: O=C(Nc1ccccc1OC(=O)c1ccc(Cl)cc1)c1ccc(Cl)cc1 [MLS000573208-01]
- CMV-LACZ in Myotubes, signal relative to DMSO ([1]; 0.5 uM): 0.9547
- CMV-LACZ in Myotubes, signal relative to DMSO ([1]; 1 uM): 1.3021
- CMV-LACZ in Myotubes, signal relative to DMSO ([1]; 5 uM): 1.1765
- CMV-LACZ in Myotubes, signal relative to DMSO ([1]; 10 uM): 0.8913
- CMV-LACZ in Myotubes, signal relative to DMSO ([1]; 20 uM): 0.9633
- CMV-LACZ in Myotubes, signal relative to DMSO ([1]; 40 uM): 0.9478
- Burkin Assay in Myotubes, α7 integrin LacZ reporter signal relative to DMSO ([2]; 0.5 uM): 0.9453
- Burkin Assay in Myotubes, α7 integrin LacZ reporter signal relative to DMSO ([2]; 1 uM): 1.007
- Burkin Assay in Myotubes, α7 integrin LacZ reporter signal relative to DMSO ([2]; 5 uM): 0.98
- Burkin Assay in Myotubes, α7 integrin LacZ reporter signal relative to DMSO ([2]; 10 uM): 1.045
- Burkin Assay in Myotubes, α7 integrin LacZ reporter signal relative to DMSO ([2]; 20 uM): 0.8239
- Burkin Assay in Myotubes, α7 integrin LacZ reporter signal relative to DMSO ([2]; 40 uM): 0.5966
- Burkin Assay in Myoblasts, signal relative to DMSO ([3]; 0.5 uM): 1.031
- Burkin Assay in Myoblasts, signal relative to DMSO ([3]; 1 uM): 1.015
- Burkin Assay in Myoblasts, signal relative to DMSO ([3]; 5 uM): 0.9523
- Burkin Assay in Myoblasts, signal relative to DMSO ([3]; 10 uM): 0.8121
- Burkin Assay in Myoblasts, signal relative to DMSO ([3]; 20 uM): 1.632
- Burkin Assay in Myoblasts, signal relative to DMSO ([3]; 40 uM): 0.6235
- CMV-LACZ in Myoblasts (β-galactosidase activity relative to DMSO) ([4]; 0.5 uM): 1.0197
- CMV-LACZ in Myoblasts (β-galactosidase activity relative to DMSO) ([4]; 1 uM): 0.9594
- CMV-LACZ in Myoblasts (β-galactosidase activity relative to DMSO) ([4]; 5 uM): 1.1030
- CMV-LACZ in Myoblasts (β-galactosidase activity relative to DMSO) ([4]; 10 uM): 0.8678
- CMV-LACZ in Myoblasts (β-galactosidase activity relative to DMSO) ([4]; 20 uM): 0.6626
- CMV-LACZ in Myoblasts (β-galactosidase activity relative to DMSO) ([4]; 40 uM): 0.9289
